Legend:
castrated rat = assay: Test Example 1-1: male menopausal model rat (castrated, testosterone propionate-supplemented); assay type: in vivo
Protocol: As the human menopause model, rats were castrated (orchiectomy). An eight-week-old male rat was subjected to orchiectomy under isoflurane anesthesia, and the castrated rat was orally administered the hot water extract of Cordyceps militaris derived from Samia cynthia ricini (RK: 20 mg/0.2 mL distilled water/rat: average body weight at the start of administration: 317 g) together with testosterone propionate (TP: 1 mg/kg, every other day administration) continuously for 12 days. Animals were sacrificed the day after the final treatment, and then the serum, testes, prostate, and seminal vesicle glands were isolated. Some animals to which 0.2 mL distilled water was administered was used as control group.
After the blood collection, the concentrations of testosterone and dihydrotestosterone in the serum were evaluated by the following measurement kit.
The results of the blood testosterone values measured by an EIA kit (manufactured by Cayman) and the results of blood dihydrotestosterone values measured by an ELISA kit (manufactured by Abnova) are shown in FIGS. 1 and 2, respectively.
After the autopsy, changes in the weight of the prostate and the seminal vesicle were evaluated. The change in the weight of the prostate is shown in FIG. 5, and change in the weight of the seminal vesicle is shown in FIG. 6.

[1] = test system: prostatic hypertrophy model rat; assay: Test Example 1-2: prostatic hypertrophy model rat (long-term excessive TP); assay type: in vivo, Wistar rat; conditions: TP 3 mg/kg, 1 month
Protocol: In a rat model of menopause Test Example 1-1, since the increase in the prostatic weight by testosterone propionate (TP) was inhibited by the hot water extract of Cordyceps militaris derived from Samia cynthia ricini (RK), it was assumed that RK has inhibitory effects on prostatic hypertrophy. The effect of long-term administration of RK was, therefore, examined using a rat model of prostatic hypertrophy in which an excessive amount of TP is administered to mature rats for a long period of time.
An eight-week-old male Wistar rat was orally administered RK (10 mg/0.2 mL distilled water/rat or 20 mg/0.2 mL distilled water/rat: average body weight at the start of administration: 268 g) together with 3 mg/kg of TP continuously for 1 month. Animals were sacrificed the day after the final treatment, and then the serum, testes, prostate, and seminal vesicle glands were isolated. Some animals to which 0.2 mL distilled water was administered was used as control group.
After the blood collection, the serum levels of testosterone and dihydrotestosterone value were evaluated by the following measurement kit.
The results of the blood testosterone values measured by EIA kit (manufactured by Cayman) and the results of dihydrotestosterone values measured by Elisa kit (manufactured by Abnova) are shown in FIGS. 8 and 9, respectively.
After the necropsy, changes in prostate weight and body weight were evaluated.

testicular cells = assay: Test Example 2: testosterone/dihydrotestosterone production in primary testicular cells; assay type: cell-based, rat; conditions: 0.5 mM, 1 h pretreatment, then LH or dibutyryl cAMP, 90 min
Protocol: Dispersed testicular cells were prepared from the testis in mature rats. The testicular cells isolated were cultured for 18 hours in DMEM/Ham's F-12 medium (manufactured by FUJIFILM Wako Pure Chemical Corporation) for culture of testicular stromal cells, Leydig cell. Cells were pretreated with the hot water extract of Cordyceps militaris derived from Samia cynthia ricini (diluted to 1:500), or cordycepin known as one of the physiological activity substances of a vegetative wasp (0.5 mM) for 1 hour and then stimulated with a luteinizing hormone (LH: 10 and 100 ng/mL) or dibutyryl cAMP (0.1 and 0.5 mM). Ninety minutes after the stimulation, the media was collected and the content of testosterone was quantified. In order to confirm the reproducibility, the results of the reexamination performed with the same test content are shown in FIG. 13. In the reexamnination, three independent experiments were performed, and in addition to testosterone, dihydrotestosterone was also quantified.

## CCC(=O)O[C@H]1CC[C@H]2[C@@H]3CCC4=CC(=O)CC[C@]4(C)[C@H]3CC[C@]12C [testosterone propionate]
Castrated rat; TP administered to castrated animals, FIG. 7
  body weight: tended to increase
Castrated rat; TP group (1 mg/kg every other day) vs castrated, FIG. 5
  weight of the prostate: increased
Castrated rat; TP group (1 mg/kg every other day) vs castrated, FIG. 6
  weight of the seminal vesicle: increased
[1]; FIG. 8
  serum levels of testosterone: increase
[1]; FIG. 9
  serum levels of dihydrotestosterone: increase
[1]; FIG. 10
  prostatic weight: increased

## Nc1ncnc2c1ncn2[C@@H]1O[C@H](CO)C[C@H]1O [Cordycepin, cordycepin]
Testicular cells
  stimulatory action on testosterone/dihydrotestosterone levels: No stimulatory action
